Data reported in patent publication US9815831B2, “3,5-disubstituted-3H-imidazo[4,5-B]pyridine and 3,5-disubstituted-3H-[1,2,3]triazolo[4,5-B] pyridine compounds as modulators of c-Met protein kinases” (Rhizen Pharmaceuticals SA, priority 2012, dated 2017).
Where two headings read alike, the source gives them in different places.

Tests used:
[1] = biological target: T1, c-Met kinase (Homo sapiens, UniProt P08581); assay: Inhibition of c-Met kinase phosphorylation in MKN-45 cells (cell based ELISA); set-up: endogenous in cells; host or cells: MKN-45; details: Table 4D, 1 h incubation
Procedure: MKN45 cells are a prototype of “c-Met addicted” cells having constitutively activated c-Met kinase similar to that observed in sub-sects of gastric or hepatocellular cancer patients with dysregulated c-Met kinase activity. Inhibition of Met phosphorylation was determined using a cell based ELISA assay according to the following schedule: • Day 1: MKN-45 cells were plated in 96-well plates in complete growth medium. • Day 2: Inhibitors at the desired concentration were added to the plates and incubated for 1 h and lysed subsequently. Lysates were transferred to NUNC Maxisorp plates coated with anti-cMet receptor antibody. Phopho-tyrosine mAb and HRP-lined anti-mouse IgG were used as primary and secondary antibodies respectively. Optical density was measured on a microplate reader (BMG Labtech., Germany) at […]. Inhibition of c-Met phosphorylation in this cell line indicates a therapeutic potential for test compounds in patients diagnosed with cancers caused by aberrant c-Met kinase signalling. Results: The results are provided above in Table 4D as IC50 values.

[2] = biological target: T2, human recombinant Met kinase (Homo sapiens, UniProt P08581); assay: Colorimetric determination of c-Met kinase activity (HTScan Met Kinase Assay Kit); format: biochemical; details: Table 4A; 100 nM (cells without *); read-out: c-Met Enzyme % inhibition @ 100 nM
T2 construct: purchased Cell Signalling Technology, Beverly, Mass
In short: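 Human recombinant Met kinase was preincubated with compound for 5 min at room temperature, then reacted with ATP and biotinylated peptide for 30 min; EDTA stop. Phosphopeptide captured on streptavidin and detected with phospho-tyrosine mAb and europium anti-mouse IgG by time-resolved fluorescence (340/615 nm). Reported as % inhibition or IC50.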

[3] = test system: MKN-45; assay: Inhibition of MKN-45 proliferation (MTT); format: cell-based, human; details: MKN-45 proliferation; for inhibition at 0.1 µM / GI50: Homo sapiens; for inhibition at 0.1 µM: read-out: MKN45 % inhibition @ 100 nM; for GI50: read-out: MKN45 GI50
In short: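 High-Met human gastric adenocarcinoma MKN-45 cells plated on day 1 and exposed to compound from day 2. Viability measured by MTT dye reduction on day 5; output given as % inhibition at 100 nM and GI50.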

[4] = biological target: T2, human recombinant Met kinase; assay: Colorimetric determination of c-Met kinase activity (HTScan Met Kinase Assay Kit); format: biochemical; details: read-out: c-Met Enzyme IC50
[5] = biological target: T1, c-Met kinase; assay: Inhibition of c-Met kinase phosphorylation in NCI-H441 cells (cell based ELISA); details: Table 5, 1 h incubation
Procedure: 5. Inhibition of c-Met Kinase Phosphorylation in NCI-H441 Cells:
Inhibition of Met phosphorylation was determined using a cell based ELISA assay according to the following schedule: • Day 1: NCI-H441 cells were plated in 96-well plates in complete growth medium. • Day 2: Inhibitors at the desired concentration were added to the plates, incubated for 1 h and lysed subsequently. Lysates were transferred to NUNC Maxisorp plates coated with anti-cMet receptor antibody. Phopho-tyrosine mAb and HRP-lined anti-mouse IgG were used as primary and secondary antibodies respectively. Optical density was measured on a microplate reader (BMG Labtech., Germany) at […]. […] Results: The results are given below in Table 5 as IC50 values.

[6] = test system: MKN-45 cells; assay: Induction of apoptosis in MKN-45 cells (caspase-3 activity); format: cell-based, human; details: percentage induction @ 3 μM; caspase-3, MKN-45 cells, 24 h; percent of maximum response
Procedure: 7. Induction of Apoptosis in MKN-45 Cells: I
Induction of Caspase 3 was measured fluorimetrically. Cells were incubated with desired concentrations of the compound for 24 h. After incubation, cells were harvested and counted. An equal number of viable cells per well (0.3×10^6 cells) were used for determination of caspase-3 activity. Increase in apoptosis manifested by an elevation in caspase-3 levels was determined using a Caspase-3 kit from Millipore. Data are expressed as a percent of the maximum response (100%).
Results: The results are provided below as percentage induction @ 3 μM in Table 7.

[7] = test system: MDA-MB-231 cells; assay: Inhibition of HGF-induced cell proliferation in MDA-MB-231 cells (MTT); format: cell-based; details: Homo sapiens, Table 8, HGF (50 ng/ml)
Procedure: 8. Inhibition of HGF-Induced Met Phosphorylation in MDA-MB-231 Cells:
MDA-MB-231 is a breast cancer cell line having a high level of c-Met expression. Activation of Met kinase in these cells occurs only after the addition of its natural ligand, Hepatocyte Growth Factor (HGF). Upon binding to the extracellular domain of the enzyme, it triggers phosphorylation of tyrosine residues and regulates several downstream events such as cell proliferation. Cell proliferation assays were carried out using the high Met expressing cell line (MDA-MB-231) according to the following schedule: • Day 1: Cells were plated in 96-well plates in complete growth medium. • Day 2: Media was replaced with starvation medium containing 0.04% BSA. • Day 3: Inhibitors at the desired concentrations and HGF (50 ng/ml) were added. • Day 5: Cell viability was determined using the 3-[4,5-dimethylthiazol-2-yl]-2,5-diphenyltetrazolium bromide (MTT) dye reduction test. […] Results: The results are provided below in Table 8 as IC50 values.

[8] = test system: Akt; assay: Inhibition of Akt phosphorylation in NCI-H441 cells (Western blot); format: cell-based; details: Homo sapiens, Table 6, 0-1000 nM
Procedure: (§1) 6. Inhibition of Akt Phosphorylation in MKN-45 or NCI-H441 Cells:
(§2) Akt is a serine-threonine kinase and a downstream marker regulated by c-Met kinase via the PI3K pathway. Once phosphorylated, Akt regulates several end processes including cell survival and growth. Cells were treated with 0-1000 nM of test compounds, lysed, and the proteins separated on a 10% SDS-PAGE. Following separation, proteins were transferred onto a nitrocellulose membrane and detected by chemiluminescence after incubation with […] (primary) and rabbit anti-mouse Ab (secondary). Intensity of the bands was determined using ImageJ 1.42q (NIH, USA) and normalized to Actin (loading control).
(§3) Results: The results are provided below as IC50 values in Table 6.

[9] = test system: Akt; assay: Inhibition of Akt phosphorylation in MKN-45 cells (Western blot); format: cell-based; details: Homo sapiens, Table 6, 0-1000 nM
Procedure: as §1, §2, §3

T2 sequence (P08581 25-1390): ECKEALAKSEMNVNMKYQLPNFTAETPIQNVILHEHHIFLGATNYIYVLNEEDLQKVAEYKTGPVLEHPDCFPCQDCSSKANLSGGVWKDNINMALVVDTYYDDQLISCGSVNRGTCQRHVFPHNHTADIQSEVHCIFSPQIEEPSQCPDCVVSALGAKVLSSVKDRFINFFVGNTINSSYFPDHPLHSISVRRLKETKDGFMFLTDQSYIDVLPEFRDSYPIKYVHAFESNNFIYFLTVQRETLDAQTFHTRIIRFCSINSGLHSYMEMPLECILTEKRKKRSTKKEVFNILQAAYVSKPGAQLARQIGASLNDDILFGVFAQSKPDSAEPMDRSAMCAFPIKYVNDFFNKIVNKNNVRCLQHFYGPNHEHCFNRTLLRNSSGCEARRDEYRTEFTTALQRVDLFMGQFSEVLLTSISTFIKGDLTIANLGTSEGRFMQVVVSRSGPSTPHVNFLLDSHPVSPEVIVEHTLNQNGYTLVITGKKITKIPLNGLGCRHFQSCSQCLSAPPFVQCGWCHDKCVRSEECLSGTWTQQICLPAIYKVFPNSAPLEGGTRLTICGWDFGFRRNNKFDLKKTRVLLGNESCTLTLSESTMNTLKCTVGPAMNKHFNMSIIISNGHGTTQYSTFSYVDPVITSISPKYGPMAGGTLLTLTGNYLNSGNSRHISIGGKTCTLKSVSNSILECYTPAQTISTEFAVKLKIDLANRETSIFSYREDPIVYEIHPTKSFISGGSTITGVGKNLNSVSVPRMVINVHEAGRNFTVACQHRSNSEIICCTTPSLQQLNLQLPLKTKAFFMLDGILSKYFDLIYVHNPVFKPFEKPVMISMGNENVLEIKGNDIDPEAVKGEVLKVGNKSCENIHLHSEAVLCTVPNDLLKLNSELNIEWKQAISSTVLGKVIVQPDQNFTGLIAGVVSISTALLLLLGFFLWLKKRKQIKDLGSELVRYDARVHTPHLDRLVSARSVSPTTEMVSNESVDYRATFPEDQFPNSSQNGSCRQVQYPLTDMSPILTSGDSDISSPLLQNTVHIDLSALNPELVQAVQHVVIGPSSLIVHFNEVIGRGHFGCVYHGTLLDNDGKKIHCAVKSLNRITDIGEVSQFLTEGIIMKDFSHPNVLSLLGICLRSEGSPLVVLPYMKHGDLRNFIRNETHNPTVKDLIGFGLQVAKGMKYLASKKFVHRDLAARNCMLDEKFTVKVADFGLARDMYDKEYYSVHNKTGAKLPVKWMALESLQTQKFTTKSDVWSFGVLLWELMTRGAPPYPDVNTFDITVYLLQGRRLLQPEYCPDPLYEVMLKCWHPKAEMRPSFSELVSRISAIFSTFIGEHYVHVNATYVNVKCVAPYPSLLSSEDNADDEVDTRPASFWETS
T1 sequence (P08581 25-1390): as above

Structure (SMILES)	IC50 [1] [nM]	inhibition at 0.1 µM [2] [%]	inhibition at 0.1 µM ([3]; MKN-45, Table 4A, 100 nM) [%]	GI50 ([3]; MKN-45, Table 4A) [nM]	IC50 ([4]; Table 4A) [nM]	IC50 [5] [nM]	% induction of caspase-3 activity [6]	IC50 [7] [nM]	IC50 [8] [nM]	IC50 [9] [nM]	MKN45 % inhibition @ 100 nM ([3]; Table 4A, 100 nM, 0.1 µM)	inhibition at 0.1 µM ([3]; MKN-45, Table 4C, 100 nM) [%]	GI50 ([3]; MKN-45, Table 4C) [nM]	IC50 ([4]; Table 4C) [nM]
C[C@@H](O)CONC(=O)c1ccc(-c2ccc3nnn(Cc4ccc5ncccc5c4)c3n2)cc1Cl [Example 32, (R)-2-chloro-N-(2-hydroxypropoxy)-4-(3-(quinolin-6-ylmethyl)-3H-[1,2,3]triazolo[4,5-b]pyridin-5-yl) benzamide]	≤ 10	75 to 100	75 to 100	25 to 50	25 to 50									
CC(C)(O)CONC(=O)c1ccc(-c2ccc3nnn(Cc4ccc5ncccc5c4)c3n2)cc1Cl [Example 30, 2-chloro-N-(2-hydroxy-2-methylpropoxy)-4-(3-(quinolin-6-ylmethyl)-3H-[1,2,3]triazolo[4,5-b]pyridin-5-yl) benzamide]	25 to 50	75 to 100	75 to 100	25 to 50	25 to 50	10 to 25	B (B is <75 and ≧50)	< 10	≤ 10	25 to 50				
O=C(NOCCO)c1c(F)cc(-c2ccc3nnn(Cc4cc5cccnc5cc4F)c3n2)cc1F [Example 9, 2,6-difluoro-4-(3-((7-fluoroquinolin-6-yl)methyl)-3H-[1,2,3]triazolo[4,5-b]pyridin-5-yl)-N-(2-hydroxyethoxy)benzamide]	25 to 50	75 to 100	75 to 100	50 to 100	25 to 50	10 to 25	A (A is ≧75)		10 to 25	50 to 250				
C[C@H](O)CONC(=O)c1ccc(-c2ccc3nnn(Cc4ccc5ncccc5c4)c3n2)cc1Cl [Example 31, (S)-2-chloro-N-(2-hydroxypropoxy)-4-(3-(quinolin-6-ylmethyl)-3H-[1,2,3]triazolo[4,5-b]pyridin-5-yl) benzamide]	≤ 10	50 to 75	50 to 75	25 to 50										
Cc1cc(-c2ccc3nnn(Cc4ccc5ncccc5c4)c3n2)ccc1C(=O)NOCC(C)(C)O [Example 33, N-(2-hydroxy-2-methylpropoxy)-2-methyl-4-(3-(quinolin-6-ylmethyl)-3H-[1,2,3]triazolo[4,5-b]pyridin-5-yl)benzamide]	10 to 25	75 to 100				≤ 10	A (A is ≧75)	10 to 50	≤ 10	25 to 50				
O=C(NOCCO)c1ccc(-c2ccc3nnn(Cc4ccc5ncccc5c4)c3n2)cc1Cl [Example 6, 2-chloro-N-(2-hydroxyethoxy)-4-(3-(quinolin-6-ylmethyl)-3H-[1,2,3]triazolo[4,5-b]pyridin-5-yl)benzamide]	25 to 50		75 to 100	25 to 50	25 to 50	≤ 10	B (B is <75 and ≧50)	< 10	≤ 10	10 to 25				
O=C(NOCCO)c1c(F)cc(-c2ccc3nnn(Cc4ccc5ncccc5c4)c3n2)cc1F [Example 8, 2,6-difluoro-N-(2-hydroxyethoxy)-4-(3-(quinolin-6-ylmethyl)-3H-[1,2,3]triazolo[4,5-b]pyridin-5-yl)benzamide]	50 to 500	75 to 100	25 to 50	50 to 100	25 to 50	25 to 50	C (C is <50 and ≧25)		≤ 10	50 to 250				
O=C(NOCCO)c1ccc(-c2ccc3nnn(Cc4cc5cccnc5cc4F)c3n2)cc1Cl [Example 7, 2-chloro-4-(3-((7-fluoroquinolin-6-yl)methyl)-3H-[1,2,3]triazolo[4,5-b]pyridin-5-yl)-N-(2-hydroxyethoxy)benzamide]	≤ 10	75 to 100	75 to 100	25 to 50	25 to 50	≤ 10	A (A is ≧75)		≤ 10	≤ 10				
Cc1cc(-c2ccc3nnn(Cc4ccc5ncccc5c4)c3n2)ccc1C(=O)NOCCO [Example 25, N-(2-hydroxyethoxy)-2-methyl-4-(3-(quinolin-6-ylmethyl)-3H-[1,2,3]triazolo[4,5-b]pyridin-5-yl)benzamide]	25 to 50	75 to 100		25 to 50	25 to 50	≤ 10	B (B is <75 and ≧50)	< 10	≤ 10	10 to 25	A (A= ≧75 to 100%)			
NC(=O)c1c(F)cc(-c2ccc3nnn(Cc4ccc5ncsc5c4)c3n2)cc1F [Example 1006, 4-(3-(benzo[d]thiazol-6-ylmethyl)-3H-[1,2,3]triazolo[4,5-b]pyridin-5-yl)-2,6-difluorobenzamide]	25 to 50					≤ 10	B (B is <75 and ≧50)	10 to 50	≤ 10	25 to 50		75 to 100	25 to 50	25 to 50
